Laboratory results reported in ChEMBL document CHEMBL1759842, “Discovery of non-glucoside SGLT2 inhibitors” (Bioorg Med Chem Lett, 2011).

Columns and labels:
[1] = target: T1, Sodium/glucose cotransporter 2 (Homo sapiens, UniProt P31639); test: Inhibition of human SGLT2 expressed in CHO cells assessed as inhibition of [14C]-alpha-methyl-D-glucopyranoside transport after 60 mins by scintillation counting; type: cell-based
T1 sequence (P31639 whole entry): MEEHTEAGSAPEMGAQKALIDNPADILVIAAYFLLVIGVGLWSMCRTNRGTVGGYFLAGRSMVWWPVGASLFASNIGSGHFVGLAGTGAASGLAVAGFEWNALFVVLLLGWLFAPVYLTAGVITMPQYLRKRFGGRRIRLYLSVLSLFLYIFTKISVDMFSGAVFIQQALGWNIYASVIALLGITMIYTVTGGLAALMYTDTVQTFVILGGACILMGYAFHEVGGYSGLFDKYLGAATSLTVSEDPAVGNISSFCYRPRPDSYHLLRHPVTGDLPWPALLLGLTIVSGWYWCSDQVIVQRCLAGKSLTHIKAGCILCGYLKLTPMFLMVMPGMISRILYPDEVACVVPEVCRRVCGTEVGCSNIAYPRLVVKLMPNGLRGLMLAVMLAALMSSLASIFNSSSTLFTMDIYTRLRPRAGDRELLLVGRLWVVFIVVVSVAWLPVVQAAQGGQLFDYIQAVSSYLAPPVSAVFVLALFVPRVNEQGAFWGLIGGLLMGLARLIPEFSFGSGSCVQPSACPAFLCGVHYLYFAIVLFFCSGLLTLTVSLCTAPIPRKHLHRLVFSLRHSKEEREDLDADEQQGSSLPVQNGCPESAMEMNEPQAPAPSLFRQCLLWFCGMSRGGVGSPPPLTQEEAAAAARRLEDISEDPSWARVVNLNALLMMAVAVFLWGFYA

[2] = target: T2, Sodium/glucose cotransporter 1 (Homo sapiens, UniProt P13866); test: Inhibition of human SGLT1 expressed in CHO cells assessed as inhibition of [14C]-alpha-methyl-D-glucopyranoside transport after 60 mins by scintillation counting; type: cell-based
T2 sequence (P13866 whole entry): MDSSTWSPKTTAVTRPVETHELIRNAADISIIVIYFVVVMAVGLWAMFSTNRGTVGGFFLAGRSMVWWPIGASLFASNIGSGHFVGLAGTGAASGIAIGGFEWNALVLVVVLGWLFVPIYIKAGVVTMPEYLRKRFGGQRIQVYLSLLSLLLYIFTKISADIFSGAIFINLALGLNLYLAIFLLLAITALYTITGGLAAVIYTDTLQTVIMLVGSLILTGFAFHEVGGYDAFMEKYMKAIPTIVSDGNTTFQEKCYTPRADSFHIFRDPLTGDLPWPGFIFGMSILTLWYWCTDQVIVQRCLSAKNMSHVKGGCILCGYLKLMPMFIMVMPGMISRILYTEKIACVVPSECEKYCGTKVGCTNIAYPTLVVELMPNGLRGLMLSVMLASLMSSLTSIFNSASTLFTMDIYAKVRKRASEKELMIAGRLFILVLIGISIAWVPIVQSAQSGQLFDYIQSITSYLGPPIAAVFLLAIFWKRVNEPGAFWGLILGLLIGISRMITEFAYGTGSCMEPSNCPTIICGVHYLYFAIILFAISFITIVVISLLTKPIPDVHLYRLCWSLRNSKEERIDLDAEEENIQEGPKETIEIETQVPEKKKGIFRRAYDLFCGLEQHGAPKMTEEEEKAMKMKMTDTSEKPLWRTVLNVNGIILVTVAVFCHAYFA

[3] = Metabolic stability in rat liver microsomes assessed as compound remaining after 30 mins; type: ADME, Microsome; settings: read-out: Stability
[4] = Metabolic stability in human liver microsomes assessed as compound remaining after 30 mins; type: ADME, Microsome; settings: read-out: Stability
[5] = target: T3, Sodium/myo-inositol cotransporter 2 (Homo sapiens, UniProt Q8WWX8); test: Inhibition of SGLT6 expressed in CHO cells assessed as inhibition of [14C]-alpha-methyl-D-glucopyranoside transport after 60 mins by scintillation counting; type: cell-based
T3 sequence (Q8WWX8 whole entry): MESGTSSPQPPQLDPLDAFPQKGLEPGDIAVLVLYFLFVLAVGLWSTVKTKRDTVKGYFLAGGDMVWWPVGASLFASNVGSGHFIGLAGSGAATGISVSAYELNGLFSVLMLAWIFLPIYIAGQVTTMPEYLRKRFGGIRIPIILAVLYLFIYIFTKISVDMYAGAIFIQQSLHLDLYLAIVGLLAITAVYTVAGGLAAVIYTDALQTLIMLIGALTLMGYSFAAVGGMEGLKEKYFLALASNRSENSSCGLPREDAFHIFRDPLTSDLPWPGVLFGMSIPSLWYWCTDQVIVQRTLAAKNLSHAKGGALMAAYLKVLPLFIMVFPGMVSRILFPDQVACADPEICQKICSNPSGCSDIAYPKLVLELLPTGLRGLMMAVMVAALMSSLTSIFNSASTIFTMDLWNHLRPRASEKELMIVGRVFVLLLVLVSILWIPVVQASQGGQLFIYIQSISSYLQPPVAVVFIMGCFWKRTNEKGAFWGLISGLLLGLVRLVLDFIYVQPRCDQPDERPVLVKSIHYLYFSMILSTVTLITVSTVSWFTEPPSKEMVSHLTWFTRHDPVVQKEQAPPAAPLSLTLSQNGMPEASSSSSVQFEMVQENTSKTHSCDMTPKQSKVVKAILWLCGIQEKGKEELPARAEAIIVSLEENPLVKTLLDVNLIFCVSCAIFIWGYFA

[6] = target: T1, Sodium/glucose cotransporter 2; test: Displacement of [3H]dapagliflozin from human SGLT2 expressed in CHO cells after 60 mins by scintillation counting; type: cell-based
[7] = target: T1, Sodium/glucose cotransporter 2; test: Inhibition of human SGLT2 expressed in CHO cells assessed as inhibition of [14C]-alpha-methyl-D-glucopyranoside transport after 60 mins by scintillation counting in presence of 100% plasma; type: cell-based

IC50 [1]	IC50 [2]	other results	SMILES
2110 nM	3470 nM	–	O=C1CSc2ccc(C(F)(F)F)cc2N1Cc1nnc(SCc2ccc(Cl)cc2)n1-c1ccccc1
1580 nM	25000 nM	–	O=C1COc2ccc(Cl)cc2N1Cc1nnc(CCc2ccc(Cl)cc2)n1C1CC1
430 nM	3290 nM	–	CCn1c(CN2C(=O)COc3cc(Cl)ccc32)nnc1SCc1ccc(Cl)cc1
250 nM	6640 nM	–	CCn1c(CN2C(=O)COc3ccc(C(F)(F)F)cc32)nnc1SCc1ccc(Cl)cc1
520 nM	2530 nM	–	CCn1c(CN2C(=O)COc3cc(Br)ccc32)nnc1SCc1ccc(Cl)cc1
30 nM	11800 nM	–	CCCCn1c(CCc2ccc(Cl)cc2)nnc1CN1C(=O)COc2ccc(Cl)cc21
1200 nM	2000 nM	–	CC(C)n1c(CN2C(=O)CSc3ccc(C(F)(F)F)cc32)nnc1SCc1ccc(Cl)cc1
–	–	remaining at 0.5 h [3]: 4%; remaining at 0.5 h [4]: 4%; IC50 [5]: 9200 nM	O=C1COc2c(Cl)cc(Cl)cc2N1Cc1nnc(CCc2ccc(Cl)cc2)n1CCC(F)(F)F
90 nM	5320 nM	–	CCn1c(CN2C(=O)COc3ccc(Br)cc32)nnc1SCc1ccc(Cl)cc1
30 nM	7280 nM	–	O=C1COc2ccc(Cl)cc2N1Cc1nnc(CCc2ccc(Cl)cc2)n1CC1CC1
640 nM	46000 nM	–	CCn1c(CCc2ccc(Cl)cc2)nnc1CN1C(=O)COc2ccc(C(F)(F)F)cc21
–	–	IC50 [5]: 380 nM	CCOc1ccc(Cc2cc([C@@H]3O[C@H](CO)[C@@H](O)[C@H](O)[C@H]3O)ccc2Cl)cc1 [DAPAGLIFLOZIN]
2100 nM	5610 nM	–	CCn1c(CN2C(=O)COc3ccc([N+](=O)[O-])cc32)nnc1SCc1ccc(Cl)cc1
40 nM	13600 nM	–	CCCn1c(CCc2ccc(Cl)cc2)nnc1CN1C(=O)COc2ccc(Cl)cc21
150 nM	7340 nM	–	CCn1c(CN2C(=O)COc3ccc(Cl)cc32)nnc1SCc1ccc(Cl)cc1
160 nM	6900 nM	–	CC(C)Cn1c(CCc2ccc(Cl)cc2)nnc1CN1C(=O)COc2ccc(Cl)cc21
70 nM	13800 nM	–	O=C1COc2ccc(Cl)cc2N1Cc1nnc(CCc2ccc(Cl)cc2)n1CCC(F)(F)F
9 nM	9140 nM	IC50 [6]: 16 nM; remaining at 0.5 h [3]: 4%; remaining at 0.5 h [4]: 4%; IC50 [5]: 14400 nM; IC50 [7]: 40 nM	CCCn1c(CCc2ccc(Cl)cc2)nnc1CN1C(=O)COc2c(Cl)cc(Cl)cc21
370 nM	4750 nM	–	CCn1c(CN2C(=O)CSc3ccc(C(F)(F)F)cc32)nnc1SCc1ccc(Cl)cc1
80 nM	7130 nM	–	CCn1c(CN2C(=O)COc3ccc(C)cc32)nnc1SCc1ccc(Cl)cc1
180 nM	9880 nM	–	CCCn1c(CCc2ccc(Cl)cc2)nnc1CN1C(=O)COc2ccc(C(F)(F)F)cc21
150 nM	7340 nM	–	CCn1c(CN2C(=O)COc3c(Cl)cccc32)nnc1SCc1ccc(Cl)cc1
1100 nM	3750 nM	–	O=C1CSc2ccc(C(F)(F)F)cc2N1Cc1nnc(SCc2ccc(Cl)cc2)n1C1CC1
